The values that follow come from patent US20070072209A1, “Methods of treatment and diagnosis of Kaposi's sarcoma (KS) and KS related diseases” (priority 2005, published 2007).

Series [1] has as its system KSHV-infected DMVEC. Particulars: cited from earlier work.
In series [2] the test system is KSHV-infected DMVEC. The following applies: cited from earlier work. This is another data set of the same source.
Series [3] deals with Uninfected DMVEC. Particulars: cited from earlier work.
Series [4] deals with KSHV-infected DMVEC. Put plainly: siRNA treatment and focus inhibition assay. It counts as cell-based, human. The following applies: observed up to 14 days post-transfection. Here is the method:
siRNA treatment and Focus Inhibition Assay. siRNA oligonucleotides were designed using the oligoengine design tool (Oligoengine, Seattle, Wash.). RNA olionucleotides were purchased from Oligoengine or Dharmacon Inc. (Lafayette, Colo.). […] The twenty-one nucleotide RNA oligos were resuspended according to manufacturer's instructions to obtain either 20 microM or 50 microM solutions and delivered to DMVEC by transfection. For transfection, cells were seeded into 35 mm plates for overnight incubation, and transfections were performed at approximately 80% confluence according to published methods. Briefly, from a 20 microM siRNA stock solution, 12 microL of siRNA was added (240 pmol) to 200 microL OPTI-MEM medium (Gibco). After a 10 minute incubation, 12 microL Oligofectamine (Invitrogen) diluted in 48 microL OPTI-MEM was mixed with the diluted siRNA and incubated for an addition 20 minutes. The complex was added dropwise to a […] containing 1 ml of complete endothelial growth medium. Cells were monitored for up to 14 days for evidence of foci-formation, as described for the PMO-AS assays. Control Cy3-Luciferase GL2 Duplex siRNA (Dharmacon) was used to monitor transient tranfection and the duration of siRNA expression in endothelial cells. Cy3 siRNA was visible for over 3 weeks post-transfection. […]

For series [5], the system named is RDC1 mRNA. Put plainly: qPCR of target mRNA after siRNA transfection: RDC1. The class given is cell-based, human. Particulars: relative to FITC-tagged control siRNA or transfection reagent alone; KSHV-DMVEC. Here is the method:
(§1) Quantitative PCR. Real-time PCR was performed on an ABI 7700 sequence detection system (Applied Biosystems). To normalize gene expression between mock and infected samples, 18S RNA, beta-Actin and GAPDH were assessed. […] Total RNA was treated with Dnase I (Dnase Free:Ambion) before synthesis of cDNA by random hexamers and Superscript II (Invitrogen). […] Relative expression values between mock and infected samples were calculated by the comparative CT Method as previously described (Moses et al, 2002). […]
(§2) siRNA treatment and Focus Inhibition Assay. siRNA oligonucleotides were designed using the oligoengine design tool (Oligoengine, Seattle, Wash.). […] Cells were monitored for up to 14 days for evidence of foci-formation, as described for the PMO-AS assays. […]
Specifically, FIGS. 6A-D show, according to particular aspects of the present invention, small interfering RNA (siRNA) inhibition of RDC1, Neuritin, INSR and IGFBP2. […] Cells were treated with siRNA and monitored for up to 14 days. To calculate mRNA degradation, mRNA was isolated and qPCR was performed. mRNA levels were calculated relative to a FITC-tagged control siRNA (100%).

The subject of series [6] is Neuritin mRNA. Put plainly: qPCR of target mRNA after siRNA transfection: Neuritin. Particulars: relative to controls; RNA harvested day 3 post-transfection. It counts as cell-based, human. On the procedure:
as §1, §2
Specifically, FIGS. 6A-D show, according to particular aspects of the present invention, small interfering RNA (siRNA) inhibition of RDC1, Neuritin, INSR and IGFBP2. […] Cells were treated with siRNA and monitored for up to 14 days. To calculate mRNA degradation, mRNA was isolated and qPCR was performed. mRNA levels were calculated relative to a FITC-tagged control siRNA (100%). […]

Take `Cc1ccc(NC(=O)c2ccc(CN3CCN(C)CC3)cc2)cc1Nc1nccc(-c2cccnc2)n1` [STI 571]: the focus formation result in series [1] (KSHV-infected DMVEC) is reported as “focus formation is inhibited”. The “phenotype after removal of drug” value in series [1] (even after exposure of cells to a 10 μM dose) was “regeneration of the transformed phenotype”. Moreover, in series [2], the “nonspecific cytotoxicity (cell viability controls)” value is given as “not due to nonspecific cytotoxicity” and the “proliferative response to exogenous SCF” value is reported as “inhibited”. Further, the “effect on cell morphology or viability” value in series [3] is recorded as “has effect on cell morphology or viability”.
In the case of “RDC1 siRNA #1: RDC1 siRNA giving the larger mRNA decrease; presumably RDC1-234, AACATGCCCAACAAAAGCGTC (guide AACATGCCCAACAAAAGCGTC; listed as DNA, chemistry not given here)”, the “KSHV-induced focus formation / contact inhibition after siRNA” value in series [4] was “more stringent maintenance of contact inhibition”. The “reduction of RDC1 mRNA” value in series [5] is on record as 56%.
Consider “Neuritin siRNA: Neuritin siRNA, AAAGATATCTGATTAATTCCA (SEQ ID NO:42) (guide AAAGATATCTGATTAATTCCA; listed as DNA, chemistry not given here)”, for which the “KSHV-induced focus formation / contact inhibition after siRNA” value in series [4] is recorded as “maintained contact-inhibited growth”. In addition, the “reduction in Neuritin mRNA levels” value in series [6] worked out at 63%.
